Data as given in ChEMBL document CHEMBL1141575, “Preparation and in vitro biological evaluation of tetrapyrrole ethanolamide derivatives as potential anticancer agents” (Bioorg Med Chem Lett, 2008).

Legend:
Raji [1] = assay: Survival of human Raji cells at 100 uM under deem light after 96 hrs by MTT assay relative to control; format: functional; conditions: read-out: Survival
Daudi = assay: Cytotoxicity against human Daudi cells under deem light after 96 hrs by MTT assay; format: functional, cell-based
HeLa [2] = assay: Survival of human HeLa cells at 0.01 uM under deem light after 96 hrs by MTT assay relative to control; format: functional; conditions: read-out: Survival
K562 [3] = assay: Cytotoxicity against human K562 cells under deem light after 96 hrs by MTT assay; format: functional, cell-based; conditions: K562, 96 h
[4] = Cytotoxicity against human MDA-MB cells under deem light after 96 hrs by MTT assay; format: functional, cell-based
Raji [5] = assay: Survival of human Raji cells at 10 uM under deem light after 96 hrs by MTT assay relative to control; format: functional; conditions: read-out: Survival
[6] = Survival of human H209 cells at 100 uM under deem light after 96 hrs by MTT assay relative to control; format: functional; conditions: NCI-H209, 96 h, read-out: Survival
K562 [7] = assay: Survival of human K562 cells at 0.01 uM under deem light after 96 hrs by MTT assay relative to control; format: functional; conditions: K562, 96 h, read-out: Survival
[8] = Survival of human MDA-MB cells at 0.1 uM under deem light after 96 hrs by MTT assay relative to control; format: functional; conditions: read-out: Survival
K562 [9] = assay: Survival of human K562 cells at 100 uM under deem light after 96 hrs by MTT assay relative to control; format: functional; conditions: K562, 96 h, read-out: Survival
[10] = Survival of human MDA-MB cells at 100 uM under deem light after 96 hrs by MTT assay relative to control; format: functional; conditions: read-out: Survival
Raji [11] = assay: Survival of human Raji cells at 0.1 uM under deem light after 96 hrs by MTT assay relative to control; format: functional; conditions: read-out: Survival
[12] = Survival of human H209 cells at 50 uM under deem light after 96 hrs by MTT assay relative to control; format: functional; conditions: NCI-H209, 96 h, read-out: Survival
K562 [13] = assay: Survival of human K562 cells at 10 uM under deem light after 96 hrs by MTT assay relative to control; format: functional; conditions: K562, 96 h, read-out: Survival
Raji [14] = assay: Survival of human Raji cells at 50 uM under deem light after 96 hrs by MTT assay relative to control; format: functional; conditions: read-out: Survival
NCI-H69 [15] = assay: Survival of human H69 cells at 100 uM under deem light after 96 hrs by MTT assay relative to control; format: functional; conditions: NCI-H69, 96 h, read-out: Survival
[16] = Survival of human MDA-MB cells at 50 uM under deem light after 96 hrs by MTT assay relative to control; format: functional; conditions: read-out: Survival
Raji [17] = assay: Survival of human Raji cells at 0.01 uM under deem light after 96 hrs by MTT assay relative to control; format: functional; conditions: read-out: Survival
[18] = Survival of human 2780.9S cells at 10 uM under deem light after 96 hrs by MTT assay relative to control; format: functional; conditions: read-out: Survival
[19] = Survival of human 2780.9S cells at 0.1 uM under deem light after 96 hrs by MTT assay relative to control; format: functional; conditions: read-out: Survival
HeLa [20] = assay: Survival of human HeLa cells at 0.1 uM under deem light after 96 hrs by MTT assay relative to control; format: functional; conditions: read-out: Survival
[21] = Cytotoxicity against human 2780.9S cells under deem light after 96 hrs by MTT assay; format: functional, cell-based
NCI-H69 [22] = assay: Survival of human H69 cells at 0.1 uM under deem light after 96 hrs by MTT assay relative to control; format: functional; conditions: NCI-H69, 96 h, read-out: Survival
SiHa [23] = assay: Survival of human SIHA cells at 50 uM under deem light after 96 hrs by MTT assay relative to control; format: functional; conditions: read-out: Survival
[24] = Survival of human H209 cells at 0.01 uM under deem light after 96 hrs by MTT assay relative to control; format: functional; conditions: NCI-H209, 96 h, read-out: Survival
SiHa [25] = assay: Survival of human SIHA cells at 10 uM under deem light after 96 hrs by MTT assay relative to control; format: functional; conditions: read-out: Survival
NCI-H69 [26] = assay: Survival of human H69 cells at 0.01 uM under deem light after 96 hrs by MTT assay relative to control; format: functional; conditions: NCI-H69, 96 h, read-out: Survival
Raji [27] = assay: Cytotoxicity against human Raji cells under deem light after 96 hrs by MTT assay; format: functional, cell-based
[28] = Photohemolysis in human RBC in absence of light; format: ADME, cell-based; conditions: erythrocyte
HeLa [29] = assay: Survival of human HeLa cells at 10 uM under deem light after 96 hrs by MTT assay relative to control; format: functional; conditions: read-out: Survival
SiHa [30] = assay: Cytotoxicity against human SIHA cells under deem light after 96 hrs by MTT assay; format: functional, cell-based
[31] = Survival of human H209 cells at 0.1 uM under deem light after 96 hrs by MTT assay relative to control; format: functional; conditions: NCI-H209, 96 h, read-out: Survival
K562 [32] = assay: Survival of human K562 cells at 50 uM under deem light after 96 hrs by MTT assay relative to control; format: functional; conditions: K562, 96 h, read-out: Survival
HeLa [33] = assay: Cytotoxicity against human HeLa cells under deem light after 96 hrs by MTT assay; format: functional, cell-based
[34] = Survival of human 2780.9S cells at 0.01 uM under deem light after 96 hrs by MTT assay relative to control; format: functional; conditions: read-out: Survival
NCI-H69 [35] = assay: Cytotoxicity against human H69 cells under deem light after 96 hrs by MTT assay; format: functional, cell-based; conditions: NCI-H69, 96 h
HeLa [36] = assay: Survival of human HeLa cells at 50 uM under deem light after 96 hrs by MTT assay relative to control; format: functional; conditions: read-out: Survival
NCI-H69 [37] = assay: Survival of human H69 cells at 50 uM under deem light after 96 hrs by MTT assay relative to control; format: functional; conditions: NCI-H69, 96 h, read-out: Survival
[38] = Survival of human 2780.9S cells at 50 uM under deem light after 96 hrs by MTT assay relative to control; format: functional; conditions: read-out: Survival
SiHa [39] = assay: Survival of human SIHA cells at 0.1 uM under deem light after 96 hrs by MTT assay relative to control; format: functional; conditions: read-out: Survival
[40] = Survival of human H209 cells at 10 uM under deem light after 96 hrs by MTT assay relative to control; format: functional; conditions: NCI-H209, 96 h, read-out: Survival
NCI-H69 [41] = assay: Survival of human H69 cells at 10 uM under deem light after 96 hrs by MTT assay relative to control; format: functional; conditions: NCI-H69, 96 h, read-out: Survival
HeLa [42] = assay: Survival of human HeLa cells at 100 uM under deem light after 96 hrs by MTT assay relative to control; format: functional; conditions: read-out: Survival
[43] = Survival of human MDA-MB cells at 0.01 uM under deem light after 96 hrs by MTT assay relative to control; format: functional; conditions: read-out: Survival
K562 [44] = assay: Survival of human K562 cells at 0.1 uM under deem light after 96 hrs by MTT assay relative to control; format: functional; conditions: K562, 96 h, read-out: Survival
[45] = Survival of human 2780.9S cells at 100 uM under deem light after 96 hrs by MTT assay relative to control; format: functional; conditions: read-out: Survival
[46] = Survival of human MDA-MB cells at 10 uM under deem light after 96 hrs by MTT assay relative to control; format: functional; conditions: read-out: Survival

COc1cccc2c1C(=O)c1c(O)c3c(c(O)c1C2=O)C[C@@](O)(C(=O)CO)C[C@@H]3O[C@H]1C[C@H](N)[C@H](O)[C@H](C)O1 [DOXORUBICIN]
viability at 100 µM (Raji [1]): 1.1%
IC50 (Daudi): 0.3 µM
viability at 0.01 µM (HeLa [2]): 97.5%
IC50 (K562 [3]): 1 µM
IC50 [4]: 9 µM
viability at 10 µM (Raji [5]): 8.6%
viability at 100 µM [6]: 1.5%
viability at 0.01 µM (K562 [7]): 116%
viability at 0.1 µM [8]: 96.8%
viability at 100 µM (K562 [9]): 7.5%
viability at 100 µM [10]: 5%
viability at 0.1 µM (Raji [11]): 106%
viability at 50 µM [12]: 5.8%
viability at 10 µM (K562 [13]): 22.1%
viability at 50 µM (Raji [14]): 2.5%
viability at 100 µM (NCI-H69 [15]): 6.6%
viability at 50 µM [16]: 11.8%
viability at 0.01 µM (Raji [17]): 110%
viability at 10 µM [18]: 56.9%
viability at 0.1 µM [19]: 105%
viability at 0.1 µM (HeLa [20]): 81.4%
IC50 [21]: 15 µM
viability at 0.1 µM (NCI-H69 [22]): 82.2%
viability at 50 µM (SiHa [23]): 3.5%
viability at 0.01 µM [24]: 85.6%
viability at 10 µM (SiHa [25]): 4.4%
viability at 0.01 µM (NCI-H69 [26]): 86.5%
IC50 (Raji [27]): 2 µM
Activity [28]: Non-toxic
viability at 10 µM (HeLa [29]): 20.2%
IC50 (SiHa [30]): 0.5 µM
viability at 0.1 µM [31]: 85.6%
viability at 50 µM (K562 [32]): 9.5%
IC50 (HeLa [33]): 2 µM
viability at 0.01 µM [34]: 108%
IC50 (NCI-H69 [35]): 3 µM
viability at 50 µM (HeLa [36]): 7%
viability at 50 µM (NCI-H69 [37]): 16.8%
viability at 50 µM [38]: 13.8%
viability at 0.1 µM (SiHa [39]): 72.2%
viability at 10 µM [40]: 23.1%
viability at 10 µM (NCI-H69 [41]): 37.7%
viability at 100 µM (HeLa [42]): 6.1%
viability at 0.01 µM [43]: 121%
viability at 0.1 µM (K562 [44]): 100%
viability at 100 µM [45]: 7.4%
viability at 10 µM [46]: 50.5%
